Assay results reported in ChEMBL document CHEMBL1240356, “Efficacy profiles of daptomycin for treatment of invasive and noninvasive pulmonary infections with Streptococcus pneumoniae” (2010).
The source made the active and inactive calls. The calls are words filed in the database; no cut-off is given here.

Experiments:
Streptococcus pneumoniae [1] = assay: Antibacterial activity against high dose 1.5 x 10^7 CFU Streptococcus pneumoniae serotype 19 infected in semitherapeutic C57BL/6 mouse model assessed as bacterial count in lung at 6 mg/kg, ip measured after 4 days post infection; assay type: functional; settings: route intraperitoneal
Streptococcus pneumoniae [2] = assay: Antibacterial activity against low dose 5 x 10^6 CFU Streptococcus pneumoniae serotype 19 infected in semitherapeutic C57BL/6 mouse model assessed as bacteremic mouse at 6 mg/kg, ip measured after 2 days post infection; assay type: functional, organism-based; set-up: dose 6 mg/kg
Streptococcus pneumoniae [3] = assay: Antibacterial activity against high dose 1.5 x 10^7 CFU Streptococcus pneumoniae serotype 2 infected in semitherapeutic C57BL/6 mouse model assessed as bacterial count in blood at 6 mg/kg, ip measured after 2 days post infection; assay type: functional; settings: route intraperitoneal
Streptococcus pneumoniae [4] = assay: Antibacterial activity against 5 x 10^6 CFU Streptococcus pneumoniae serotype 2 infected in semitherapeutic C57BL/6 mouse model assessed as bacterial count in lung at 6 mg/kg, ip measured after 2 days post infection; assay type: functional; settings: route intraperitoneal
Streptococcus pneumoniae [5] = assay: Antibacterial activity against high dose 1.5 x 10^7 CFU Streptococcus pneumoniae serotype 2 infected in therapeutic C57BL/6 mouse model assessed as bacterial count in blood at 6 mg/kg, ip measured after 3 days post infection; assay type: functional; settings: route intraperitoneal
Streptococcus pneumoniae [6] = assay: Antibacterial activity against 5 x 10^6 CFU Streptococcus pneumoniae serotype 2 infected in semitherapeutic C57BL/6 mouse model assessed as bacterial count in lung at 6 mg/kg, ip measured after 1 day post infection; assay type: functional; settings: route intraperitoneal
Streptococcus pneumoniae [7] = assay: Antibacterial activity against high dose 1.5 x 10^7 CFU Streptococcus pneumoniae serotype 2 infected in semitherapeutic C57BL/6 mouse model assessed as bacterial count in lung at 6 mg/kg, ip measured after 5 day post infection; assay type: functional; settings: route intraperitoneal
Streptococcus pneumoniae [8] = assay: Antibacterial activity against low dose 5 x 10^6 CFU Streptococcus pneumoniae serotype 19 infected in semitherapeutic C57BL/6 mouse model assessed as bacteremic mouse at 6 mg/kg, ip measured after 10 day post infection; assay type: functional, organism-based; set-up: dose 6 mg/kg
Streptococcus pneumoniae [9] = assay: Antibacterial activity against 5 x 10^6 CFU Streptococcus pneumoniae serotype 2 infected in semitherapeutic C57BL/6 mouse model assessed as bacterial count in blood at 6 mg/kg, ip measured after 1 day post infection; assay type: functional; settings: route intraperitoneal
Streptococcus pneumoniae [10] = assay: Antibacterial activity against high dose 1.5 x 10^7 CFU Streptococcus pneumoniae serotype 2 infected in semitherapeutic C57BL/6 mouse model assessed as reduction of bacteremiar at 6 mg/kg, ip measured after 3 days post infection; assay type: functional, organism-based; set-up: dose 6 mg/kg
Streptococcus pneumoniae [11] = assay: Antibacterial activity against 1.5 x 10^7 CFU Streptococcus pneumoniae serotype 19 infected in therapeutic C57BL/6 mouse model assessed as effect on lung permeability at 6 mg/kg, ip measured on day 3 post infection; assay type: functional, organism-based; set-up: dose 6 mg/kg
Streptococcus pneumoniae [12] = assay: Antibacterial activity against high dose 1.5 x 10^7 CFU Streptococcus pneumoniae serotype 2 infected in therapeutic C57BL/6 mouse model assessed as reduction of bacteremia at 6 mg/kg, ip measured after 5 day post infection; assay type: functional, organism-based; set-up: dose 6 mg/kg
Streptococcus pneumoniae [13] = assay: Antibacterial activity against high dose 1.5 x 10^7 CFU Streptococcus pneumoniae serotype 19 infected in semitherapeutic C57BL/6 mouse model assessed as bacteremic mice at 6 mg/kg, ip measured after 4 days post infection; assay type: functional, organism-based; set-up: dose 6 mg/kg
Streptococcus pneumoniae [14] = assay: Antibacterial activity against low dose 5 x 10^6 CFU Streptococcus pneumoniae serotype 19 infected in semitherapeutic C57BL/6 mouse model assessed as bacterial count in lung at 6 mg/kg, ip measured after 2 days post infection; assay type: functional; settings: route intraperitoneal
Streptococcus pneumoniae [15] = assay: Antibacterial activity against high dose 1.5 x 10^7 CFU Streptococcus pneumoniae serotype 19 infected in semitherapeutic C57BL/6 mouse model assessed as bacterial count in lung at 6 mg/kg, ip measured after 5 day post infection; assay type: functional; settings: route intraperitoneal
Streptococcus pneumoniae [16] = assay: Antibacterial activity against 1.5 x 10^7 CFU Streptococcus pneumoniae serotype 2 infected in therapeutic C57BL/6 mouse model assessed as survival rate at 6 mg/kg, ip qd beginning 2 days post infection measured after 3 days post infection; assay type: functional; settings: route intraperitoneal
Streptococcus pneumoniae [17] = assay: Antibacterial activity against 1.5 x 10^7 CFU Streptococcus pneumoniae serotype 19 infected in therapeutic C57BL/6 mouse model assessed as survival rate at 6 mg/kg, ip qd beginning at time of infection measured after 6 days post infection; assay type: functional; settings: route intraperitoneal
Streptococcus pneumoniae [18] = assay: Antibacterial activity against high dose 1.5 x 10^7 CFU Streptococcus pneumoniae serotype 2 infected in therapeutic C57BL/6 mouse model assessed as bacterial count in lung at 6 mg/kg, ip measured after 3 days post infection; assay type: functional; settings: route intraperitoneal
Streptococcus pneumoniae [19] = assay: Antibacterial activity against low dose 5 x 10^6 CFU Streptococcus pneumoniae serotype 2 infected in semitherapeutic C57BL/6 mouse model assessed as reduction of bacteremia at 6 mg/kg, ip measured after 5 day post infection; assay type: functional, organism-based; set-up: dose 6 mg/kg
Streptococcus pneumoniae [20] = assay: Antibacterial activity against high dose 1.5 x 10^7 CFU Streptococcus pneumoniae serotype 19 infected in semitherapeutic C57BL/6 mouse model assessed as bacteremic mice at 6 mg/kg, ip measured after 5 day post infection; assay type: functional, organism-based; set-up: dose 6 mg/kg
Streptococcus pneumoniae [21] = assay: Antibacterial activity against low dose 5 x 10^6 CFU Streptococcus pneumoniae serotype 19 infected in semitherapeutic C57BL/6 mouse model assessed as bacterial count in lung at 6 mg/kg, ip measured after 1 day post infection; assay type: functional; settings: route intraperitoneal
Streptococcus pneumoniae [22] = assay: Antibacterial activity against high dose 1.5 x 10^7 CFU Streptococcus pneumoniae serotype 19 infected in semitherapeutic C57BL/6 mouse model assessed as reduction of bacteremia at 6 mg/kg, ip measured after 1 day post infection; assay type: functional, organism-based; set-up: dose 6 mg/kg
Streptococcus pneumoniae [23] = assay: Antibacterial activity against 1.5 x 10^7 CFU Streptococcus pneumoniae serotype 2 infected in therapeutic C57BL/6 mouse model assessed as increase in compound level in BALF at 6 mg/kg, ip measured on day 3 post infection; assay type: functional, organism-based; set-up: dose 6 mg/kg
Streptococcus pneumoniae [24] = assay: Antibacterial activity against 1.5 x 10^7 CFU Streptococcus pneumoniae serotype 19 infected in therapeutic C57BL/6 mouse model assessed as increase in compound level in BALF at 6 mg/kg, ip measured on day 3 post infection; assay type: functional, organism-based; set-up: dose 6 mg/kg
Streptococcus pneumoniae [25] = assay: Antibacterial activity against 1.5 x 10^7 CFU Streptococcus pneumoniae serotype 19 infected in therapeutic C57BL/6 mouse model assessed as increase in serum compound level at 6 mg/kg, ip measured on day 3 post infection; assay type: functional, organism-based; set-up: dose 6 mg/kg
Streptococcus pneumoniae [26] = assay: Antibacterial activity against 1.5 x 10^7 CFU Streptococcus pneumoniae serotype 2 infected in therapeutic C57BL/6 mouse model assessed as effect on leukocytes infiltration in BALF at 6 mg/kg, ip measured on day 3 post infection; assay type: functional, organism-based; set-up: dose 6 mg/kg
Streptococcus pneumoniae [27] = assay: Antibacterial activity against low dose 5 x 10^6 CFU Streptococcus pneumoniae serotype 2 infected in semitherapeutic C57BL/6 mouse model assessed as bacterial count in lung at 6 mg/kg, ip measured after 5 day post infection; assay type: functional; settings: route intraperitoneal
Streptococcus pneumoniae [28] = assay: Antibacterial activity against 1.5 x 10^7 CFU Streptococcus pneumoniae serotype 19 infected in therapeutic C57BL/6 mouse model assessed as effect on leukocytes infiltration in BALF at 6 mg/kg, ip measured on day 3 post infection; assay type: functional, organism-based; set-up: dose 6 mg/kg
Streptococcus pneumoniae [29] = assay: Antibacterial activity against low dose 5 x 10^6 CFU Streptococcus pneumoniae serotype 19 infected in semitherapeutic C57BL/6 mouse model assessed as bacterial count in lung at 6 mg/kg, ip measured after 5 day post infection; assay type: functional; settings: route intraperitoneal
Streptococcus pneumoniae [30] = assay: Antibacterial activity against high dose 1.5 x 10^7 CFU Streptococcus pneumoniae serotype 2 infected in semitherapeutic C57BL/6 mouse model assessed as bacterial count in lung at 6 mg/kg, ip measured after 2 days post infection; assay type: functional; settings: route intraperitoneal

SMILES: CCCCCCCCCC(=O)N[C@@H](Cc1c[nH]c2ccccc12)C(=O)N[C@H](CC(N)=O)C(=O)N[C@@H](CC(=O)O)C(=O)N[C@@H]1C(=O)NCC(=O)N[C@@H](CCCN)C(=O)N[C@@H](CC(=O)O)C(=O)N[C@H](C)C(=O)N[C@@H](CC(=O)O)C(=O)NCC(=O)N[C@H](CO)C(=O)N[C@@H]([C@H](C)CC(=O)O)C(=O)N[C@@H](CC(=O)c2ccccc2N)C(=O)O[C@@H]1C
- log10cfu (Streptococcus pneumoniae [1]): 4.5
- Activity (Streptococcus pneumoniae [2]): Active
- log10cfu (Streptococcus pneumoniae [3]): 0.1
- log10cfu (Streptococcus pneumoniae [4]): 3.6
- log10cfu (Streptococcus pneumoniae [5]): 2.3
- log10cfu (Streptococcus pneumoniae [6]): 5.4
- log10cfu (Streptococcus pneumoniae [7]): 2.2
- Activity (Streptococcus pneumoniae [8]): Active
- log10cfu (Streptococcus pneumoniae [9]): 2
- Activity (Streptococcus pneumoniae [10]): Active
- Activity (Streptococcus pneumoniae [11]): Active
- Activity (Streptococcus pneumoniae [12]): Active
- Activity (Streptococcus pneumoniae [13]): Active
- log10cfu (Streptococcus pneumoniae [14]): 5.5
- log10cfu (Streptococcus pneumoniae [15]): 4.7
- Activity (Streptococcus pneumoniae [16]): 70%
- Activity (Streptococcus pneumoniae [17]): 40%
- log10cfu (Streptococcus pneumoniae [18]): 5.5
- Activity (Streptococcus pneumoniae [19]): Active
- Activity (Streptococcus pneumoniae [20]): Active
- log10cfu (Streptococcus pneumoniae [21]): 6.3
- Activity (Streptococcus pneumoniae [22]): Active
- Activity (Streptococcus pneumoniae [23]): inactive
- Activity (Streptococcus pneumoniae [24]): Active
- Activity (Streptococcus pneumoniae [25]): Active
- Activity (Streptococcus pneumoniae [26]): Active
- log10cfu (Streptococcus pneumoniae [27]): 3.2
- Activity (Streptococcus pneumoniae [28]): Active
- log10cfu (Streptococcus pneumoniae [29]): 3.5
- log10cfu (Streptococcus pneumoniae [30]): 4.2
